Literature values, collected in patent US20180271890A1, “Solid Pharmaceutical Composition Comprising Amorphous Sofosbuvir” (priority 2015, published 2018).

Structure (SMILES) | relative humidity at which the substance deliquesces (amorphous form) | behaviour under stress conditions (40 °C, relative humidity 75%)
CC(C)OC(=O)[C@H](C)N[P@](=O)(OC[C@H]1O[C@@H](n2ccc(=O)[nH]c2=O)[C@](C)(F)[C@@H]1O)Oc1ccccc1 [Amorphous sofosbuvir, (S)-isopropyl 2-(((S)-(((2R,3R,4R,5R)-5-(2,4-dioxo-3,4-dihydropyrimidin-1(2H)-yl)-4-fluoro-3-hydroxy-4-methyltetrahydrofuran-2-yl)methoxy)(phenoxy)phosphoryl)-amino)propanoate] | above 50% | –
CC(C)OC(=O)[C@H](C)N[P@](=O)(OC[C@H]1O[C@@H](n2ccc(=O)[nH]c2=O)[C@](C)(F)[C@@H]1O)Oc1ccccc1 [sofosbuvir, (S)-isopropyl 2-(((S)-(((2R,3R,4R,5R)-5-(2,4-dioxo-3,4-dihydropyrimidin-1(2H)-yl)-4-fluoro-3-hydroxy-4-methyltetrahydrofuran-2-yl)methoxy)(phenoxy)phosphoryl)-amino)propanoate] | – | deliquesces after a few hours
